Reference: US20160193148A1, “LIPOSOMAL FORMULATIONS FOR THE TREATMENT OF BACTERIAL INFECTIONS” (UNIVERSITY OF GEORGIA RESEARCH FOUNDATION, INC., priority 2013, published 2016)
Values joined by “and” are separate entries in the source; they are usually repeats but may differ in a detail not shown here. Equal values may be shown once.

Experiment: Plasma pharmacokinetics after single IV or nebulized dose in foals
Protocol: Eight healthy 5-7-week-old Quarter Horse foals were randomly assigned to one of 4 groups using a balanced Latin-square design. Foals were considered healthy on the basis of physical examinations, complete blood cell counts and plasma biochemical profiles. […] The liposome gentamicin formulation was nebulized using Nortev FLEXINEB. For each treatment, gentamicin was administered over a period of 15 minutes. There was a washout period of 7-14 days between each treatment.
For the BAL collection, foals were sedated with xylazine and butorphanol. Concentrations of gentamicin were measured in plasma and in bronchoalveolar cells using HPLC-MS.
Eight foals received a single IV or nebulized dose (6.6 mg/kg bwt) of FG^h or LG in a balanced Latin square design. Beginning at 5-7 weeks of age, every foal received each of the 4 possible drug-route combinations with a 14-day washout period between each administration. Intravenous FG and LG were diluted in 250 ml of sterile 0.9% saline and administered via a jugular catheter as a constant rate infusion over 15 min. Nebulized FG and LG were administered by inhalation over 15 minutes via a commercial equine nebulizer. To ensure equivalent rate of delivery, FG was diluted to the same volume as LG with sterile 0.9% saline. Particle size of nebulized LG was verified using laser diffraction. Blood samples for plasma separation were obtained from a catheter placed in the contralateral jugular vein prior to each drug administration, and at 5, 10, 20, 30, 45 minutes and 1, 1.5, 2, 3, 4, 6, 8, 12, 16, 24 and 48 hours after the end of the 15 minute IV infusion or nebulization period. Bronchoalveolar lavage (BAL) fluid was collected at 2, 4, 8, 24, and 48 hours. Foals were sedated with xylazine hydrochloride (0.5 mg/kg bwt IV) and butorphanol tartrate (0.07 mg/kg bwt IV) prior to collection of BAL fluid. Prior to analysis for gentamicin concentration, blood samples were centrifuged at 400×g for 10 minutes and the resultant plasma frozen at −80° C. until assayed.
Briefly, gentamicin was extracted from plasma (250 μl) and urine (500 μl) using protein precipitation with an equal volume of ice-cold 90:10 acetonitrile: 0.2% formic acid (v/v). Extracted samples were centrifuged (2° C. at 10,000×g for 10 min) twice. Two-hundred microliters of the supernatants were transferred to polypropylene inserts for injection. The supernatant derived from the lyzed BAL cell pellet was transferred to polypropylene inserts for direct injection without further processing. […] An aliquot of the resultant supernatant was then mixed with an equal volume of ice-cold acetonitrile, centrifuged (2° C. at 10,000×g for 10 minutes) and 200 μl was transferred to polypropylene inserts for injection. Calibration standards were prepared in drug-free foal plasma, BAL fluid or urine and then extracted as described above so that standard curves specific to each biologic matrix could be constructed. […] Analyte separation and LC-MS/MS measurement of gentamicin were performed exactly as described previously (Burton et al. (2013) Equine Vet J. 45, 507-511) except that BAL fluid samples, were introduced in the MS with a flow rate of 0.18 ml/minutes and a total run time of 8 minutes due to relatively low gentamicin concentration in those samples.
For each foal, plasma, PELF, and BAL cell concentration versus time data were analyzed using commercial software. Noncompartmental analysis was used for PELF and BAL cell data.

[1] = plasma, IV 6.6 mg/kg, 8 foals, Table 4
[2] = plasma, IV 6.6 mg/kg, 8 foals, listed as FG, 6.6 mg/kg

Substance: gentamicin sulfate [Free Gentamicin]
- Plasma concentrations after nebulized administration (nebulized 6.6 mg/kg, at most time points): 570 ng/mL
- A (intercept of the distribution phase) (plasma, IV 6.6 mg/kg, 8 foals): 53.24 ± 25.83 µg/mL
- AUC0-t (plasma, IV 6.6 mg/kg, 8 foals): 96700 ± 63800 ng·h/mL
- AUC0-∞ (plasma, IV 6.6 mg/kg, 8 foals): 98400 ± 64300 ng·h/mL
- AUMC0-∞ (plasma, IV 6.6 mg/kg, 8 foals): 360.2 ± 364.0 μg · h^2/ml
- B (intercept of the elimination phase) (plasma, IV 6.6 mg/kg, 8 foals): 2.50 ± 1.50 µg/mL
- CL (plasma, IV 6.6 mg/kg, 8 foals): 1.42 ± 0.615 mL/min/kg
- MRT (plasma, IV 6.6 mg/kg, 8 foals): 3.18 ± 1.25 h
- t1/2α (distribution half-life) (plasma, IV 6.6 mg/kg, 8 foals): 0.97 ± 0.45
- α (rate constant of the distribution phase) (plasma, IV 6.6 mg/kg, 8 foals): 0.82 ± 0.28 h⁻¹
- β (rate constant of the elimination phase) (plasma, IV 6.6 mg/kg, 8 foals): 0.12 ± 0.04 h⁻¹
- C0.5 h [1]: 71780 ± 92140 ng/mL
- C48 h [1]: 90 ± 90 ng/mL
- t1/2β (plasma, IV 6.6 mg/kg, 8 foals, Table 4, listed as FG, 6.6 mg/kg): 6.2 ± 1.8 h and 6.20 ± 1.77 h
- C1 h [2]: 32600 ± 25280 ng/mL
- C24 h [2]: 250 ± 190 ng/mL
- C0.5 h (plasma, IV 6.6 mg/kg, Table 1): 71800 ± 92100 ng/mL
- C48 h (plasma, IV 6.6 mg/kg, Table 1): 100 ± 90 ng/mL
- t1/2β (plasma, IV 6.6 mg/kg, Table 1, 6.6 mg/kg): 6.2 ± 1.8 h
- t1/2β (plasma, IV 6.6 mg/kg, Table 1, listed as free gentamicin, 6.6 mg/kg): 6.2 ± 1.8 h
